# Measured values: PMC8597745, “The Antimicrobial Peptide MK58911-NH2 Acts on Planktonic, Biofilm, and Intramacrophage Cells of Cryptococcus neoformans” (Antimicrobial Agents and Chemotherapy, 2021)
# No end group written: not given here.
# How the values were obtained:
# in vitro [1] = conditions: human, MRC5 pulmonary fibroblasts
# Method: (§4) The impact of peptides on the viability of pulmonary fibroblasts (MRC5) was also evaluated. Cells were cultured in Dulbecco’s high-glucose modified Eagle medium (DMEM; Gibco, Thermo Fisher Scientific) supplemented with 10% fetal bovine serum (FBS) in 25-cm^2 flasks. For the assay, cells were seeded into 96-well plates at 5 × 10^4 cells/well. The cells were left to grow at 37°C in a 5% CO2 incubator for 24 h until they reached confluence. […] DMEM and dimethyl sulfoxide (DMSO) were used as the positive and negative controls, respectively. The plates were then incubated at 37°C in a 5% CO2 incubator for 24 h. Resazurin (0.01%; Sigma-Aldrich) was then used to assess the viability of the cells according to the manufacturer’s instructions. After 4 h of incubation at 37°C in a 5% CO2 incubator, the fluorescence intensity was measured using a microplate reader (BioTek) at 570 to 600 nm. The fluorescence values were normalized by the positive control and expressed as a percentage of metabolic activity. Values for the 50% inhibitory concentration (IC50) were calculated. Three independent experiments were performed.
# [2] = system: C. neoformans biofilm formation; test: Antibiofilm activity, biofilm formation at 0 h (XTT reduction); format: cell-based, Cryptococcus neoformans
# Method: (§5) Briefly, C. neoformans was grown in Sabouraud dextrose broth at 30°C at 150 rpm for 24 h. To evaluate the effect of peptides on biofilm formation, a fungal suspension of 1 × 10^7 cells/ml in minimal medium (20 mg/ml thiamine, 30 mM glucose, 26 mM glycine, 20 mM MgSO4·7H2O, 58.8 mM KH2PO4) was prepared, and 100 μl of the suspension was added to individual wells of 96-well polystyrene plates (TPP, Switzerland). […] The plate was incubated at 37°C for 48 h. To evaluate the effect of the peptides on the mature biofilm, 100 μl of the fungal suspension was added to individual wells of a 96-well plate, and the plate was incubated at 37°C for 48 h. After that period, the supernatant was removed, and the peptides and drugs were added. The plate was again incubated at 37°C for 48 h. The metabolic activity of the biofilms was quantified by the 2,3-bis(2-methoxy-4-nitro-5-sulfophenyl)-5-[(phenylamino)carbonyl]-2H-tetrazolium hydroxide (XTT) reduction assay. For this, a solution with 50 μl of XTT (1 mg/ml in PBS) and 4 μl of menadione (1 mM in ethanol; Sigma-Aldrich, São Paulo, SP, Brazil) was added to each well of the 96-well plate. After 3 h of incubation at 37°C, the fluorescence intensity was measured using a microplate reader (BioTek) at 490 nm. Subsequently, the percentage of metabolic activity of the biofilm treated with peptides/drugs was compared to that of the untreated control. […]
# C. neoformans [3] = test: microbe, parasite or virus in culture; conditions: 48 h; for MIC: Cryptococcus neoformans, read-out: C. neoformans MIC; for C. neoformans MIC: 37°C, RPMI 1640, visual reading
# Method: (§1) C. neoformans ATCC 90112 and C. gattii ATCC 56990 were purchased from the collection of the Laboratory of Clinical Mycology, Faculty of Pharmaceutical Sciences of UNESP, Araraquara, Brazil. Cryptococcus species were grown at 30°C for 48 to 72 h in Sabouraud dextrose agar.
# (§2) Anti-Cryptococcus activity was determined by the broth microdilution method according to document M27-A3 from the Clinical and Laboratory Standards Institute ([47]). Briefly, 100 μl of a fungal suspension at […] in RPMI 1640 medium was added to each well of the 96-well plate. Subsequently, 100 μl of MK58911-NH2, MK58911(1–7)-OH, MK58911(8–14)-NH2, MK58911(4–11)-OH, and MH58911 (0.48 to 250 μg/ml); amphotericin B (0.016 to 8 μg/ml); and fluconazole (0.063 to 32 μg/ml), all diluted in RPMI 1640 medium, was added to the plate. The fungal suspension and RPMI 1640 medium were used as the positive and negative controls, respectively. The plate was incubated at 37°C at 150 rpm for 48 h. Next, fungal growth was visually observed, and the MIC was determined. Three independent experiments were performed.
# C. gattii = test: microbe, parasite or virus in culture; conditions: 48 h; for MIC: Cryptococcus gattii, read-out: C. gattii MIC; for C. gattii MIC: 37°C, RPMI 1640, visual reading
# Method: as §1, §2
# [4] = system: C. neoformans mature biofilm; test: Antibiofilm activity, mature biofilm at 48 h (XTT reduction); format: cell-based, Cryptococcus neoformans
# Method: as §5
# [5] = system: intramacrophage C. neoformans; test: Intramacrophage activity (J774 macrophages infected with C. neoformans, CFU); format: cell-based, Cryptococcus neoformans; conditions: treatment at the MIC, 24 h; control 4.5 × 10^3 CFU/well
# Method: The medium was used as a positive control. […] Three independent experiments were performed.
# C. neoformans [6] = test: Zebrafish embryo immersion infection model, fungal burden (CFU); format: in vivo, zebrafish embryos; conditions: immersion infection 1 × 10^6 cells/ml, treatment at the MIC for 24 h
# Method: (§3) A zebrafish embryo infection model by immersion was used, as previously described for C. albicans, with some modifications ([22]). The housing and breeding of the fish used in this study received appropriate institutional approvals (permit number 01.0082.2014). Briefly, 15 zebrafish embryos at 24 h postfertilization (hpf) and cultured in embryo medium at 28°C were used. Embryos were coincubated in wells with C. neoformans at 1 × 10^6 cells/ml by immersion. The plate was incubated at 28°C at 80 rpm for 24 h. Subsequently, the embryos were washed twice with embryo medium and transferred to a 96-well plate (1 embryo/well). Next, 100 μl of MK58911-NH2, amphotericin B, and fluconazole, all diluted in embryo medium and at the MIC, was added to the wells. The plate was incubated at 28°C at 80 rpm for 24 h. After that, the embryos were lysed individually in 2% Triton X-100–PBS using a 26-gauge needle. A […] dilution was performed in PBS, and 10 μl was plated onto Sabouraud dextrose agar containing 50 mg/liter chloramphenicol. […] The groups were tested in triplicate, and two independent experiments were performed. Images of some embryos 4 h after infection with C. neoformans, labeled with calcofluor white, were acquired with an In Cell Analyzer 2000 microscope (GE).
# in vitro [7] = conditions: mouse, J774 macrophages
# Method: as §4
# The impact of peptides on the viability of macrophages (J774) was also evaluated as described above for MRC5 cells.
# zebrafish embryos = test: Survival of infected zebrafish embryos under treatment; format: in vivo; conditions: treatment at the MIC for 24 h
# Method: as §3
molecule,measurement,setting,value
"INWLKIA-OH [MK58911(1–7)-OH, INWLKIA-OH]",IC50 at 24 h,in vitro [1],> 500 µg/mL
C[C@@H]1[C@H](O)[C@@H](C)/C=C/C=C/C=C/C=C/C=C/C=C/C=C/[C@H](O[C@@H]2O[C@H](C)[C@@H](O)[C@H](N)[C@@H]2O)C[C@@H]2O[C@](O)(C[C@@H](O)C[C@@H](O)[C@H](O)CC[C@@H](O)C[C@@H](O)CC(=O)O[C@H]1C)C[C@H](O)[C@H]2C(=O)O [Amphotericin B],concentration at which formation of C. neoformans biofilms can be prevented,[2],> 0.5 µg/mL
same,MIC,C. neoformans [3],0.125 µg/mL
same,MIC,C. gattii,0.125 µg/mL
same,concentration at which mature biofilms can be inhibited,[4]; mature biofilms,> 2 µg/mL
same,intramacrophagic fungal burden (average),[5],1.1 × 10^3 CFU/well
same,fungal burden (CFU) of embryos' chorion vs untreated control,C. neoformans [6],significant reduction in CFU
"INWLHIAHHVHGML-NH2 [MH58911-NH2, INWLHIAHHVHGML-NH2]",IC50 at 24 h,in vitro [7],> 250 µg/mL
same,C. neoformans MIC,C. neoformans [3],>250 µg/mL
same,C. gattii MIC,C. gattii,>250 µg/mL
same,IC50 at 24 h,in vitro [1],> 500 µg/mL
"LKIAKKVK-OH [MK58911(4–11)-OH, LKIAKKVK-OH]",IC50 at 24 h,in vitro [1],> 500 µg/mL
"INWLKIAKKVKGML-NH2 [MK58911-NH2, INWLKIAKKVKGML-NH2]",IC50 at 24 h,in vitro [7],62.5 µg/mL
same,C. neoformans MIC,C. neoformans [3],31.25 µg/mL
same,C. gattii MIC,C. gattii,15.63 µg/mL
same,IC50 at 24 h,in vitro [1],> 500 µg/mL
same,embryo survival under treatment,zebrafish embryos,All embryos survived
"KKVKGML-NH2 [MK58911(8–14)-NH2, KKVKGML-NH2]",C. neoformans MIC,C. neoformans [3],>250 µg/mL
same,C. gattii MIC,C. gattii,>250 µg/mL
same,IC50 at 24 h,in vitro [1],> 500 µg/mL
OC(Cn1cncn1)(Cn1cncn1)c1ccc(F)cc1F [Fluconazole],MIC,C. neoformans [3],1 µg/mL
same,MIC,C. gattii,8 µg/mL
same,susceptibility of C. neoformans biofilms,"[4]; biofilms in vitro, corroborates ref 13",resistant
same,intramacrophagic fungal burden (average),[5],1.8 × 10^3 CFU/well
same,fungal burden (CFU) of embryos' chorion vs untreated control,C. neoformans [6],did not reduce the fungal burden
